Reference: patent publication US20070299072A1, “KV1.5 POTASSIUM CHANNEL INHIBITORS” (Wyeth, priority 2006, published 2007)

Target: T1, Kv1.5 (Homo sapiens, UniProt P22460)
T1 construct: expressed in transfected cells; host or cells: HEK or LTK- cells
Assay: Kv1.5 Patch Clamp EP (whole cell patch clamp; single point at 1 μM and IC50)
Type: cell-based
Conditions: single point at 1.0 μM, Kv1.5 stably over expressed in HEK or LTK- cells
Procedure: The external solution is standard Tyrodes solution. […] Inhibition was measured at the end of the 1 second pulses and expressed relative to controls. Initial Kv1.5 inhibition is estimated by single point determinations done at 1 μM.

T1 sequence (P22460 whole entry): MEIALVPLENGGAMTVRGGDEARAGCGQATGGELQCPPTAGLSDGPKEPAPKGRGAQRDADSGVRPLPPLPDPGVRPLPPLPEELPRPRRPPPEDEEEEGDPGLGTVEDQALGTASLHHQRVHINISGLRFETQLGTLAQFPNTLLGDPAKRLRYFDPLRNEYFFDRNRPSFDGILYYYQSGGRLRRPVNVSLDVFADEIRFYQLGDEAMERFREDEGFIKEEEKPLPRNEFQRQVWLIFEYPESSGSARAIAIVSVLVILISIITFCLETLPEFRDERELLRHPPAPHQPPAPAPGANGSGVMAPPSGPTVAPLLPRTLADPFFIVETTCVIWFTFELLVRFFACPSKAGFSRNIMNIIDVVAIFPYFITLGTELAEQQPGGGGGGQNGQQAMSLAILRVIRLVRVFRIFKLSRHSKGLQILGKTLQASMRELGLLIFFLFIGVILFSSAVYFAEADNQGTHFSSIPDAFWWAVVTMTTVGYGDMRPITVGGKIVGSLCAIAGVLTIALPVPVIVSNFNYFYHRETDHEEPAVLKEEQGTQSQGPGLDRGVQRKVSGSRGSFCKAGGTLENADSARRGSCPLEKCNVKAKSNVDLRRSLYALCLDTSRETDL

| SMILES | inhibition at 1 µM |
| --- | --- |
| COc1ccc(CCN2C(=O)C3(CCNCC3)N(C)C2c2ccc(C3CC3)cc2)cc1 (stereo not shown) [Compound 1, 2-(4-Cyclopropylphenyl)-3-[2-(4-methoxyphenyl)ethyl]-1-methyl-1,3,8-triaza-spiro[4.5]decan-4-one] | 2% |
| COc1ccc(CCN2C(=O)C3(CCNCC3)N(C)C2c2ccc(C(C)(C)C)cc2)cc1 (stereo not shown) [Compound 2, 2-(4-tert-Butylphenyl)-3-[2-(4-methoxyphenyl)ethyl]-1-methyl-1,3,8-triaza-spiro[4.5]decan-4-one] | 6% |
| COc1ccc(CCN2C(=O)C3(CCNCC3)N(C)C2c2ccc(OC(F)F)cc2)cc1 (stereo not shown) [Compound 3, 2-(4-Difluoromethoxyphenyl)-3-[2-(4-methoxyphenyl)ethyl]-1-methyl-1,3,8-triaza-spiro[4.5]decan-4-one] | 6% |
| COc1ccc(CCN2C(=O)C3(CCN(C(=O)NC(C)C)CC3)N(C)C2c2ccc(OC)cc2)cc1 (stereo not shown) [Compound 17, 2-(4-Methoxyphenyl)-3-[2-(4-methoxyphenyl)ethyl]-1-methyl-4-oxo-1,3,8-triaza-spiro[4.5]decane-8-carboxylic acid isopropylamide] | 31% |
| COc1ccc(CCN2C(=O)C3(CCN(C(=O)N(C)C)CC3)N(C)C2c2ccc(C3CC3)cc2)cc1 (stereo not shown) [Compound 18, 2-(4-Cyclopropylphenyl)-3-[2-(4-methoxyphenyl)ethyl]-1-methyl-4-oxo-1,3,8-triaza-spiro[4.5]decane-8-carboxylic acid dimethylamide] | 10% |
| COC(=O)N1CCC2(CC1)C(=O)N(CCc1ccc(OC)cc1)C(c1ccc(C3CC3)cc1)N2C (stereo not shown) [Compound 41, Methyl 2-(4-cyclopropylphenyl)-3-[2-(4-methoxyphenyl)ethyl]-1-methyl-4-oxo-1,3,8-triazaspiro[4.5]decane-8-carboxylate] | 17% |
| CN1C(c2ccc(C3CC3)cc2)N(CCCc2ccccc2)C(=O)C12CCNCC2 (stereo not shown) [Compound 43, 2-(4-Cyclopropylphenyl)-1-methyl-3-(3-phenylpropyl) —1,3,8-triazaspiro[4.5]-decan-4-one] | 23% |
| COc1ccc(CCN2C(=O)C3(CCN(CC4CC4)CC3)N(C)C2c2ccc(C3CC3)cc2)cc1 (stereo not shown) [Compound 56, 8-Cyclopropylmethyl-2-(4-cyclopropylphenyl)-3-[2-(4-methoxyphenyl)ethyl]-1-methyl-1,3,8-triaza-spiro[4.5]decan-4-one] | 12% |
| COc1ccc(CCN2C(=O)C3(CCN(CC(N)=O)CC3)N(C)C2c2ccc(OC(F)F)cc2)cc1 (stereo not shown) [Compound 57, 2-{2-(4-Difluoromethoxyphenyl)-3-[2-(4-methoxyphenyl)ethyl]-1-methyl-4-oxo-1,3,8-triaza-spiro[4.5]dec-8-yl}acetamide] | 25% |
| COc1ccc(CCN2C(=O)C3(CCN(C(=O)C(C)(C)N)CC3)N(C)C2c2ccc(C3CC3)cc2)cc1 (stereo not shown) [Compound 59, 8-(2-Amino-2-methylpropionyl)-2-(4-cyclopropylphenyl)-3-[2-(4-methoxyphenyl)ethyl]-1-methyl-1,3,8-triaza-spiro[4.5]decan-4-one] | 11% |
| COc1ccc(CCN2C(=O)C3(CCNCC3)N(C)C2Cc2ccc(C(C)(C)C)cc2)cc1 (stereo not shown) [Compound 69, 2-(4-tert-butylbenzyl)-3-[2-(4-methoxyphenyl)ethyl]-1-methyl-1,3,8-triazaspiro[4.5]decan-4-one] | 5% |
| COc1ccc(CCN2C(=O)C3(CCN(C(=O)C(C)(C)NC(=O)OC(C)(C)C)CC3)N(C)C2c2ccc(C3CC3)cc2)cc1 (stereo not shown) [Compound 70, (2-{2-(4-cyclopropylphenyl)-3-[2-(4-methoxyphenyl)ethyl]-1-methyl-4-oxo-1,3,8-triaza-spiro[4.5]dec-8-yl}-1,1-dimethyl-2-oxo-ethyl)-carbamic acid tert-butyl ester] | 42% |
| COc1ccc(CCN2C(=O)C3(CCN(C(N)=O)CC3)N(C)C2c2ccc(OC)cc2)cc1 (stereo not shown) [Compound 72, 2-(4-methoxyphenyl)-3-[2-(4-methoxyphenyl)ethyl]-1-methyl-4-oxo-1,3,8-triazaspiro[4.5]decane-8-carboxamide] | 16% |
| CN1C(c2ccc(C3CC3)cc2)N(CCc2ccc(OC(F)(F)F)cc2)C(=O)C12CCN(C(=O)OC(C)(C)C)CC2 (stereo not shown) [Compound 77, tert-butyl 2-(4-cyclopropylphenyl)-1-methyl-4-oxo-3-{2-[4-(trifluoromethoxy)phenyl]ethyl}-1,3,8-triazaspiro[4.5]decane-8-carboxylate] | 7% |
| CN1C(c2ccc(C3CC3)cc2)N(CCc2ccc(OC(F)(F)F)cc2)C(=O)C12CCNCC2 (stereo not shown) [Compound 78, 2-(4-cyclopropylphenyl)-1-methyl-3-{2-[4-(trifluoromethoxy)phenyl]ethyl}-1,3,8-triazaspiro[4.5]decan-4-one] | 16% |
| COc1ccc(CCN2C(=O)C3(CCN(C(=N)N)CC3)N(C)C2c2ccc(C3CC3)cc2)cc1 (stereo not shown) [Compound 84, 2-(4-cyclopropylphenyl)-3-[2-(4-methoxyphenyl)ethyl]-1-methyl-4-oxo-1,3,8-triazaspiro[4.5]decane-8-carboximidamide] | 7% |
| CN=C(N)N1CCC2(CC1)C(=O)N(CCc1ccc(OC)cc1)C(c1ccc(C3CC3)cc1)N2C (stereo not shown) [Compound 86, 2-(4-cyclopropylphenyl)-3-[2-(4-methoxyphenyl)ethyl]-N′,1-dimethyl-4-oxo-1,3,8-triazaspiro[4.5]decane-8-carboximidamide] | 4% |
| COc1ccc(CCN2C(=O)C3(CCN(C(=O)[C@H]4CCCN4)CC3)N(C)C2c2ccc(C3CC3)cc2)cc1 (stereo partly drawn) [Compound 90, 2-(4-cyclopropylphenyl)-3-[2-(4-methoxyphenyl)ethyl]-1-methyl-8-D-prolyl-1,3,8-triazaspiro[4.5]decan-4-one] | 8% |
| COc1ccc(CCN2C(=O)C3(CCNCC3)NC2c2ccc(C3CC3)cc2)cc1 (stereo not shown) [Compound 93, 2-(4-cyclopropylphenyl)-3-[2-(4-methoxyphenyl)ethyl]-1,3,8-triazaspiro[4.5]decan-4-one] | 21% |

Continued, values first:

| inhibition at 1 µM | SMILES |
| --- | --- |
| 28% | COc1ccc(CCN2C(=O)C3(CCN(C(=O)OC(C)(C)C)CC3)N(C)C2c2ccc(C(C)(C)C)cc2)cc1 (stereo not shown) [Compound 38, tert-Butyl 2-(4-tert-butylphenyl)-3-[2-(4-methoxyphenyl)ethyl]-1-methyl-4-oxo-1,3,8-triazaspiro[4.5]decane-8-carboxylate] |
| 22% | COc1ccc(CCN2C(=O)C3(CCN(C(=O)OC(C)(C)C)CC3)N(C)C2c2ccc(OC(F)F)cc2)cc1 (stereo not shown) [Compound 40, tert-Butyl 2-(4-difluoromethoxyphenyl)-3-[2-(4-methoxyphenyl)ethyl]-1-methyl-4-oxo-1,3,8-triazaspiro[4.5]decane-8-carboxylate] |
| 32% | COc1ccc(CCN2C(=O)C3(CCN(C(=O)OC(C)(C)C)CC3)NC2c2ccc(C(C)(C)C)cc2)cc1 (stereo not shown) [Compound 60, 2-(4-tert-Butylphenyl)-3-[2-(4-methoxyphenyl)ethyl]-4-oxo-1,3,8-triaza-spiro[4.5]decane-8-carboxylic acid tert-butyl ester] |
| 36% | COc1ccc(CCN2C(=O)C3(CCN(C(=O)OC(C)(C)C)CC3)NC2c2ccc(C3CC3)cc2)cc1 (stereo not shown) [Compound 64, 2-(4-cyclopropylphenyl)-3-[2-(4-methoxyphenyl)ethyl]-4-oxo-1,3,8-triaza-spiro[4.5]decane-8-carboxylic acid tert-butyl ester] |
| 11% | COc1ccc(CCN2C(=O)C3(CCN(C(=O)OC(C)(C)C)CC3)NC2c2ccc(OC)cc2)cc1 (stereo not shown) [Compound 73, tert-butyl 2-(4-methoxyphenyl)-3-[2-(4-methoxyphenyl)ethyl]-4-oxo-1,3,8-triazaspiro[4.5]decane-8-carboxylate] |
| 5% | COc1ccc(CCN2C(=O)C3(CCN(C(N)=O)CC3)NC2c2ccc(C3CC3)cc2)cc1 (stereo not shown) [Compound 74, 2-(4-cyclopropylphenyl)-3-[2-(4-methoxyphenyl)ethyl]-4-oxo-1,3,8-triazaspiro[4.5]decane-8-carboxamide] |
| 5% | COc1ccc(CCN2C(=O)C3(CCNCC3)NC2c2ccc(C(C)(C)C)cc2)cc1 (stereo not shown) [Compound 76, 2-(4-tert-butylphenyl)-3-[2-(4-methoxyphenyl)ethyl]-1,3,8-triazaspiro[4.5]decan-4-one] |
| 8% | COc1ccc(CCN2C(=O)C3(CCN(S(C)(=O)=O)CC3)NC2c2ccc(C3CC3)cc2)cc1 (stereo not shown) [Compound 79, 2-(4-cyclopropylphenyl)-3-[2-(4-methoxyphenyl)ethyl]-8-(methylsulfonyl)-1,3,8-triazaspiro[4.5]decan-4-one] |
| 5% | COc1ccc(C2NC3(CCN(C(=O)OC(C)(C)C)CC3)C(=O)N2CCCc2ccccc2)cc1 (stereo not shown) [Compound 87, tert-butyl 2-(4-methoxyphenyl)-4-oxo-3-(3-phenylpropyl)-1,3,8-triazaspiro[4.5]decane-8-carboxylate] |
| 13% | COc1ccc(CCN2C(=O)C3(CCN(C(=O)C4CC4)CC3)NC2c2ccc(C(C)(C)C)cc2)cc1 (stereo not shown) [Compound 88, 2-(4-tert-butylphenyl)-8-(cyclopropylcarbonyl)-3-[2-(4-methoxyphenyl)ethyl]-1,3,8-triazaspiro[4.5]decan-4-one] |
| 12% | CCS(=O)(=O)N1CCC2(CC1)NC(c1ccc(C(C)(C)C)cc1)N(CCc1ccc(OC)cc1)C2=O (stereo not shown) [Compound 94, 2-(4-tert-butylphenyl)-8-(ethylsulfonyl)-3-[2-(4-methoxyphenyl)ethyl]-1,3,8-triazaspiro[4.5]decan-4-one] |
| 16% | COc1ccc(CCN2C(=O)C3(CCN(C(=O)OC(C)(C)C)CC3)N(C)C2Cc2ccc(C(C)(C)C)cc2)cc1 (stereo not shown) [Compound 97, tert-butyl 2-(4-tert-butylbenzyl)-3-[2-(4-methoxyphenyl)ethyl]-1-methyl-4-oxo-1,3,8-triazaspiro[4.5]decane-8-carboxylate] |
